Earlier results as cited in publication PMC7618036, “An oral heme oxygenase inhibitor targets immunosuppressive perivascular macrophages in preclinical models of cancer” (Science translational medicine, 2025).

Design: method as in PMID 19581737, PMID 22993376
Details: cited from earlier work

In the case of `Nc1ccn([C@@H]2O[C@H](CO)[C@@H](O)C2(F)F)c(=O)n1` [gemcitabine], the “patients with pulmonary inflammation” value is listed as “approximately 23%”.
